In patent publication US5053215A, “NMR-assayable ligand-labelled trifluorothymidine containing composition and method for diagnosis of HSV infection” (priority 1988, dated 1991):
“Also recorded” adds a separate entry of the source.

Assays:
[1] = test system: HSV infected cells; details: in vitro, cited from earlier work; for Degradation of phosphorylated drug back to parent compound: HSV infected cells, Smee et al
[2] = test system: HSV TK; details: cited from earlier work
[3] = test system: HSV infected tissues; details: cited from earlier work
[4] = in vivo; details: mouse, in vivo, iv
Description: (§1) For comparison, TFT levels were measured in the livers of uninfected mice and mice with carbon tetrachloride (CCl4) induced hepatitis.
(§2) HSV-2 (333 strain) was grown and titered in Vero cells as previously described [Rand -t al, J. Med. Virol., Vol. 20, pp. 1-8 (1986).
(§3) The following strains of mice were obtained from the National Cancer Institute: Balb/c, CBA/J, A/HeN, A/J, P/N, and DBA/2N.
(§4) Carbon tetrachloride was dissolved in olive oil for injection. Trifluorothymidine was assayed by high pressure liquid chromatography (HPLC).
(§5) 4-6 week old, 18-23 gm, CBA/J mice were injected intraperitoneally (i.p.) with 1.5 ml of HSV-2 (2-4×10^6 pfu/ml). […] Three days after infection, mice were anesthetized with a 3:1 mixture of 100 mg/ml ketamine HCl:20 mg/ml Xylazine at a dose of 0.2 ml/kg. The jugular vein was surgically exposed, and mice were injected intravenously with 100 or 160 mg/kg of TFT in the appropriate volume of a 20 mg/ml solution in Phosphate Buffered Saline (PBS) pH 7.4. Mice were sacrificed at 45 minutes, 2 hours, 2.5 and 3.5 hours after I.V. injection of TFT. The livers were immediately excised and frozen at -70° C. until they could be studied. For viral titration and measurement of TFT, 1.5 ml of phosphate buffered saline pH 7.4 was mixed with 1 g of liver and the mixture homogenized (10 strokes using a Pyrex Ten Broeck tissue grinder), followed by sonication ×4 for 30 sec. in a Fisher 300 sonic dismembrator at a relative output of 0 55; 0.8 ml of the liver homogenate was mixed with an equal volume of methanol, vortexed extensively and then centrifuged at 15,000×g for 15 minutes. The supernatant was analyzed by HPLC for TFT and the results expressed per gram of liver after correction for dilution. Prior to sonication, 0.5 ml of the liver homogenate was serially diluted in serum free tissue culture media and titrated in triplicate in Vero cells as previously described [Rand et al, supra]. In some experiments the clarified supernatant that had been mixed with methanol as described above was placed in a 5 mm NMR tube and ^19 F content measured by NMR spectroscopy. In other experiments the entire liver was excised, and placed in a 12 mm NMR tube and the ^19 F directly analyzed by NMR spectroscopy.
(§6) Prior to i.p. injection of CCl4 in olive oil, 0.2 ml of blood was collected from each of a group of 5 mice. Twenty-four hours after i.p. injection of 0.1 ml/kg CCl4 in olive oil, blood was collected again, and both sets were analyzed for Alanine Amino Transferase (ALT) and Blood Urea Nitrogen (BUN). For ALT, 2 μl serum was analyzed in duplicate with a Technicon RA 1000 and for BUN 10 μl duplicate samples were analyzed with a Beckman Astra 8. Mice were sacrificed by cervical dislocation and the liver and kidney fixed in 10% formalin, stained with hematoxylin and eosin and examined histologically.
(§7) Therefore, data were analyzed by the non-parametric Mann-Whitney U test.
(§8) In FIG. 1, 1 HSV-2 infected, uninfected and CCl4 treated 4-6 week old CBA/J mice were injected via the jugular vein with 100 mg/kg TFT, and sacrificed at 45 minutes, 2 hours or 3.5 hours later. […] Most of the experiments were done on day 3 after HSV infection; day 2 after infection was not systematically studied, and is presented only for comparison.
(§9) In FIG. 2, the relationship between HSV-2 titer/g liver and TFT concentration/g liver measured by HPLC on day 3 after HSV-2 infection, 2 h (O's) and 2.5 h ( 's) following i.v. administration of TFT. Two separate experiments are shown. Data were analyzed by linear regression.

[5] = test system: livers of mice infected with HSV-2; test: TFT concentration in livers of HSV-2 infected mice (with uninfected and CCl4 hepatitis controls) by HPLC after i.v. injection
Description: as §1, §2, §3, §4, §5, §6, §7, §8, §9

[6] = TFT (19F) concentration in mouse livers by 19F NMR spectroscopy after i.v. injection; design: species or system CBA/J mice; HSV-2 (333 strain); details: in vivo, iv, 100 mg/kg, TFT concentration in liver homogenate by 19F NMR (FIG. 3B)
Description: (§10) ^19 F assay was carried out in a Nicolet-GE NT-300 NMR spectrometer, using standard techniques with a simple one-pulse sequence. The field was 7.05 Tesla (T) and the frequency was 282 megahertz. Depending upon the volume of the sample available, it was placed :n either a 5 mm or 12 mm diameter tube, which was usually not spun. Both whole liver and liver homogenates were placed in 2 ml of a 2:1 v/v mixture of D2 O: methanol which inactivated HSV, permitted field homogeneity to be optimized and provided field-frequency lock for time averaging. A five-second cycle time was used with a tip angle of 60°. Sweep width was 5000 Hz and 64K data points were collected. Concentration of ^19 F in a sample was evaluated by comparing the electronically integrated area of the resonance peak, after application of 10 Hz line broadening and Fourier transformation of the free induction delays using a 1280 computer, to that of standards containing 10, 50, or 100 μg/ml TFT Instrumental reproducibility of the calculated areas was checked by comparing the integral for the […] standard to that calculated from a scale setting obtained with a 100 μg/ml standard. […]
(§11) In FIG. 3, representative ^19 F NMR spectra was measured with the Nicolet GE NT-300 NMR spectrometer at a field strength of 7.05 T, using a 2:1 v/v D2 O/methanol mixture as a field-frequency lock. […]

[7] = test system: livers of mice infected with HSV-2; test: as above; design: species or system CBA/J mice; HSV-2 (333 strain); details: in vivo, iv, 100 mg/kg, 3.5 h
Description: as §10, §11

[8] = TFT blood levels after i.v. injection; format: in vivo, CBA/J mice
Description: as §4

[9] = test system: murine hepatitis virus (MHV-A59); design: species or system CBA/J mice; MHV-A59; details: mouse, in vivo
From the text: Symbols used: =HSV-2; O=MHV-A 59; Δ=uninfected.

[10] = in vivo; cited from earlier work
[11] = test system: optic nerve and chiasm of rats after intraocular inoculation of HSV-1; details: rat, in vivo; cited from earlier work
[12] = CCl4 induced hepatitis: Alanine Amino Transferase (ALT), Blood Urea Nitrogen (BUN) and histology; format: in vivo, CBA/J mice
Description: Preliminary experiments were then carried out to determine the average ALT levels of HSV-2 infected mice on day 3 at the time higher levels of TFT were found in the liver. […] A dose response curve of CCl4 hepatitis had shown that between 0.015-0.02 ml/kg CCl4 would lead to ALT levels of 500-5000 IU/ml blood. […]

[13] = mouse, in vivo, iv, 160 mg/kg, 2 h

## Nc1nc2c(ncn2COCCO)c(=O)[nH]1 [DHPG, 9-(2-Hydroxyethyoxymethyl) guanine]
[1]
  Degradation of phosphorylated drug back to parent compound: did not hydrolyze back to the parent compound as readily
  Intracellular accumulation in HSV infected cells: intracellular accumulation; also recorded: accumulated in a similar manner

## Nc1nc2c(ncn2COCCO)c(=O)[nH]1 [acyclovir]
[1]
  Degradation of phosphorylated drug back to parent compound: rapidly degraded back to acyclovir, and diffused out of the cell
  Intracellular accumulation in HSV infected cells: intracellular accumulation; also recorded: accumulate in tissue culture; also recorded: accumulated in the form of phosphorylated intermediates
[2]
  Phosphorylation by HSV TK: phosphorylated by the HSV TK
[3]; Price et al
  Selective accumulation of acyclovir in HSV infected tissues in vivo: unable to demonstrate any selective accumulation
[3]; s.c. injection, Biron et al, "remained reasonably elevated"
  Duration of elevated plasma levels of acyclovir: ≥ 2 h

## O=c1[nH]c(=O)n([C@H]2C[C@H](O)[C@@H](CO)O2)cc1C(F)(F)F [TFT, trifluorothymidine]
[4]; 100 mg/kg, TFT concentration in liver by HPLC, CCl4 hepatitis
  concentration at 2 h: < 1000 ng/g
[4]; 160 mg/kg, Mean conc. of TFT in liver, infected mice
  concentration at 2 h: 110000 ng/g
[4]; 160 mg/kg, Mean conc. of TFT in liver, uninfected mice
  concentration at 2 h: 14700 ng/g
[5]; 2 HSV-2 infected mice with titers of 10^6 pfu HSV/g liver (FIG. 4)
  TFT levels in livers of HSV-2 infected mice, positive control in MHV experiment: high levels of TFT in liver; also recorded: strikingly elevated levels
[5]; i.p. injection, HSV infected mice
  Accumulation of TFT in liver after i.p. injection: impossible to demonstrate accumulation of TFT in the liver
[5]; i.v. injection of TFT, 2 and 3.5 hours in FIG. 1 (100 mg/kg), 100 mg/kg
  TFT levels in livers of HSV-2 infected mice vs uninfected or CCl4 treated mice: significantly higher levels of TFT in their livers at both 2 and 3.5 hours; also recorded: highly elevated levels of TFT
[5]; [13]
  Mean conc. of TFT in liver, infected mice: 110.1 μg/g liver
  Mean conc. of TFT in liver, uninfected mice: 14.7 μg/g liver
[5]; viral titers low (10^3 /g liver)
  TFT levels in liver on day 2 after HSV-2 infection: higher levels of TFT could be found in the livers of HSV-2 infected mice on day 2 as well as day 3
[6]
  concentration at 3.5 h: 11000 ng/g
[7]
  TFT concentration in liver homogenate by 19F NMR (FIG. 3B): 11 μg/g liver
[8]; 100 mg/kg i.v., HSV-2 infected, uninfected, CCl4 treated
  Blood levels of TFT at 45 minutes, difference among groups: essentially no difference in blood levels
[8]; i.v. injection, 2 hours, any of the groups
  Blood levels of TFT at 2 hours: no detectable drug at 2 hours in the blood; also recorded: no measurable blood levels
[9]
  TFT level vs MHV titer: No relationship between MHV titer and TFT level
[1]
  Intracellular accumulation in HSV infected cells: intracellular accumulation; also recorded: accumulate in tissue culture
[2]
  Phosphorylation by HSV TK: phosphorylated by the HSV TK
[10]
  Blood brain barrier crossing: crosses the blood brain barrier poorly

## Cc1cn([C@@H]2O[C@H](CO)[C@@H](O)[C@@H]2F)c(=O)[nH]c1=O [FMAU, 2' fluoro-5-methyl-1-β-D-arabinosyluracil]
[11]
  Accumulation of FMAU in choroid plexus and cells lining the ventricular walls: non-specific accumulation
  Concentration of FMAU in optic nerve and chiasm: specific concentration of the drug in the optic nerve and chiasm

## ClC(Cl)(Cl)Cl [CCl4, carbon tetrachloride]
[12]; 0.015-0.02 ml/kg CCl4
  ALT levels in blood after CCl4 (0.015-0.02 ml/kg), dose response curve: 500-5000 IU/ml blood
[12]; 0.2 ml/kg i.p.
  Renal function (BUN) after CCl4: no significant alternation in renal function
[12]; 0.2 ml/kg in olive oil i.p., a day later, typical range
  ALT levels in blood after CCl4 (0.2 ml/kg): 20,000-30,000 IU/ml
[12]; 0.2 ml/kg in olive oil i.p., a day later / histology
  Hepatic necrosis after CCl4: overwhelming hepatic necrosis; also recorded: massive
[12]; 24 h post treatment, 0.02 ml/kg, N = 12, after receiving 100 mg/kg TFT, Mean ± SD
  ALT after CCl4 (0.02 ml/kg): 18950 ± 7526 IU/L
[12]; 24 h post treatment, 0.2 ml/kg i.p., N = 5, Mean ± SD, pre treatment 10.4 + 2.7
  BUN after CCl4: 6.4 ± 2.3 mg/dL
[12]; 24 h post treatment, 0.2 ml/kg i.p., N = 5, Mean ± SD, pre treatment 28.2 ± 13.8
  ALT after CCl4 (0.2 ml/kg): 28112 ± 6086 IU/L
[12]; dose printed as 0.0 ml/kg
  Hepatic necrosis after low dose CCl4, histology: more localized and less extensive
